Results as given in ChEMBL document CHEMBL1201862, “PubChem BioAssay data set” (2004).
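48-hour exposure; five concentrations; linearly interpolated endpoints. GI50 marks 50% less growth.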 Active and inactive are the calls of the source. No stated cut-off is given here; in the data, active = GI50 up to about 1.1 µM and inactive = higher.

Key:
Assay in all cases: NCI-60 cell line screen, 48 h
NCI-H23 = system: NCI-H23
NCI-H460 = system: NCI-H460
LOX IMVI = system: LOX IMVI
BT-549 = system: BT-549
HCT-116 = system: HCT-116
NCI-H226 = system: NCI-H226
786-0 = system: 786-0
RPMI-8226 = system: RPMI-8226
MCF7 = system: MCF7
ACHN = system: ACHN
CCRF-CEM = system: CCRF-CEM
OVCAR-8 = system: OVCAR-8
SN12C = system: SN12C
RXF 393 = system: RXF 393
UACC-62 = system: UACC-62
KM12 = system: KM12
K562 = system: K562
OVCAR-3 = system: OVCAR-3
SK-MEL-5 = system: SK-MEL-5
DU-145 = system: DU-145

Measured: GI50

CCOC(=O)c1ccc(OCc2nc3cc(C(F)(F)F)ccc3nc2-c2ccccc2)cc1
inactive: NCI-H23 > 100 µM | NCI-H460 97.9 µM | LOX IMVI > 100 µM | BT-549 > 100 µM | HCT-116 > 100 µM | NCI-H226 > 100 µM | 786-0 > 100 µM | RPMI-8226 > 100 µM | MCF7 > 100 µM | ACHN > 100 µM | CCRF-CEM > 100 µM | OVCAR-8 > 100 µM | SN12C > 100 µM | RXF 393 > 100 µM | UACC-62 > 100 µM | KM12 > 100 µM | K562 74.3 µM | OVCAR-3 > 100 µM | SK-MEL-5 44 µM | DU-145 > 100 µM

O=C(O)C(=Cc1ccc(-c2ccc([N+](=O)[O-])cc2)o1)C(=O)O
inactive: NCI-H23 > 100 µM | NCI-H460 > 100 µM | LOX IMVI > 100 µM | BT-549 > 100 µM | HCT-116 > 100 µM | NCI-H226 > 100 µM | 786-0 > 100 µM | RPMI-8226 > 100 µM | MCF7 > 100 µM | ACHN > 100 µM | CCRF-CEM > 100 µM | OVCAR-8 > 100 µM | SN12C > 100 µM | RXF 393 > 100 µM | UACC-62 > 100 µM | KM12 > 100 µM | K562 > 100 µM | OVCAR-3 > 100 µM | SK-MEL-5 > 100 µM | DU-145 > 100 µM

C=CCn1c(=O)c(C)cn(/C(=C/C(=O)OCC)C(=O)OCC)c1=O
inactive: NCI-H23 16.1 µM | NCI-H460 25.4 µM | LOX IMVI 6.28 µM | BT-549 16.2 µM | HCT-116 9.62 µM | NCI-H226 31.6 µM | 786-0 5.87 µM | RPMI-8226 14.6 µM | MCF7 4.34 µM | ACHN 9.08 µM | CCRF-CEM 1.42 µM | OVCAR-8 17.6 µM | SN12C 14.2 µM | RXF 393 14 µM | UACC-62 16.5 µM | KM12 17.2 µM | K562 4.19 µM | OVCAR-3 9.66 µM | SK-MEL-5 18 µM | DU-145 40.7 µM

O=C(NNc1cn[nH]c(=O)n1)c1cccc2nc3ccccc3nc12
inactive: NCI-H23 45.6 µM | NCI-H460 > 100 µM | LOX IMVI 38.8 µM | BT-549 > 100 µM | HCT-116 > 100 µM | NCI-H226 82.2 µM | 786-0 45.2 µM | RPMI-8226 > 100 µM | MCF7 > 100 µM | ACHN 23.3 µM | CCRF-CEM 45.7 µM | OVCAR-8 39.3 µM | SN12C 60.1 µM | RXF 393 21.7 µM | UACC-62 61.5 µM | KM12 > 100 µM | K562 47.9 µM | OVCAR-3 68.7 µM | SK-MEL-5 > 100 µM | DU-145 85.3 µM

COc1cccc2c1C(=O)c1c(O)c3c(c(O)c1C2=O)C[C@@](O)(C(C)=O)C[C@@H]3OC1CC(N(Cc2ccccc2)Cc2ccccc2)C(O)C(C)O1 (stereo not given in full)
active: NCI-H460 0.653 µM | 786-0 0.713 µM | ACHN 0.51 µM
inactive: NCI-H23 18.6 µM | LOX IMVI 5 µM | BT-549 > 27.5 µM | HCT-116 1.84 µM | NCI-H226 13.1 µM | RPMI-8226 4.62 µM | MCF7 12.4 µM | CCRF-CEM 2.43 µM | OVCAR-8 4.89 µM | SN12C 8.09 µM | RXF 393 30.6 µM | UACC-62 16.6 µM | KM12 13.1 µM | K562 3.64 µM | OVCAR-3 22.8 µM | SK-MEL-5 14.6 µM | DU-145 14.1 µM

Cc1cn2c(/C=N/NC(=N)N)c(-c3cccc([N+](=O)[O-])c3)nc2s1
active: LOX IMVI 0.849 µM | HCT-116 0.366 µM | MCF7 0.625 µM | CCRF-CEM 0.532 µM | KM12 0.647 µM | K562 0.215 µM
inactive: NCI-H23 2.39 µM | NCI-H460 2.01 µM | BT-549 1.75 µM | NCI-H226 1.91 µM | 786-0 1.47 µM | RPMI-8226 3.2 µM | ACHN 1.67 µM | OVCAR-8 1.78 µM | SN12C 1.71 µM | RXF 393 1.15 µM | UACC-62 1.69 µM | OVCAR-3 1.26 µM | SK-MEL-5 1.63 µM | DU-145 1.74 µM

CO[C@H]1C[C@H](O[C@H]2CC[C@]3(C=O)[C@H]4CC[C@]5(C)[C@@H](C6=CC(=O)OC6)CC[C@]5(O)[C@@H]4CC[C@]3(O)C2)O[C@H](C)[C@H]1O[C@@H]1O[C@H](CO[C@@H]2O[C@H](CO)[C@@H](O)[C@H](O)[C@H]2O)[C@@H](O)[C@H](O)[C@H]1O
inactive: CCRF-CEM > 100 µM
active: NCI-H23 0.016 µM | NCI-H460 < 0.0132 µM | LOX IMVI 0.0373 µM | BT-549 0.039 µM | HCT-116 0.0239 µM | NCI-H226 0.171 µM | 786-0 0.0272 µM | RPMI-8226 0.139 µM | MCF7 0.0546 µM | ACHN 0.0186 µM | OVCAR-8 0.0434 µM | SN12C 0.0289 µM | RXF 393 0.0251 µM | UACC-62 0.223 µM | KM12 0.104 µM | K562 0.0857 µM | OVCAR-3 0.0241 µM | SK-MEL-5 0.037 µM | DU-145 0.0156 µM

O=C1NC2(CCN(CCc3ccccc3)CC2)Oc2ccccc21
inactive: NCI-H23 64 µM | NCI-H460 > 100 µM | LOX IMVI 53.7 µM | BT-549 39 µM | HCT-116 55.2 µM | NCI-H226 61.1 µM | 786-0 > 100 µM | RPMI-8226 33.7 µM | MCF7 46.5 µM | ACHN 84.7 µM | CCRF-CEM 49.3 µM | OVCAR-8 64.7 µM | SN12C 99.5 µM | RXF 393 22.4 µM | UACC-62 46.6 µM | KM12 54.7 µM | K562 32.5 µM | OVCAR-3 77.6 µM | SK-MEL-5 14.5 µM | DU-145 > 100 µM

Clc1ccc(/N=C/C=C/Nc2ccc(Cl)cn2)nc1
inactive: NCI-H23 16.9 µM | NCI-H460 16 µM | LOX IMVI 7.73 µM | BT-549 17.2 µM | HCT-116 12.2 µM | NCI-H226 16.1 µM | 786-0 5.65 µM | RPMI-8226 10.4 µM | MCF7 16.4 µM | ACHN 12.6 µM | CCRF-CEM 3.22 µM | OVCAR-8 10.4 µM | SN12C 14.5 µM | RXF 393 18.4 µM | UACC-62 12.9 µM | KM12 8.53 µM | K562 7.66 µM | OVCAR-3 13.5 µM | SK-MEL-5 13.7 µM | DU-145 17.5 µM

BrC1=C(Br)C2(SCCS2)[C@H]2C[C@@H]1c1ccccc12
inactive: NCI-H23 33.9 µM | NCI-H460 33.5 µM | LOX IMVI 43.7 µM | BT-549 38.4 µM | HCT-116 13.1 µM | NCI-H226 64.1 µM | 786-0 58.3 µM | RPMI-8226 13.9 µM | MCF7 22.3 µM | ACHN > 44 µM | CCRF-CEM 14.6 µM | OVCAR-8 > 100 µM | SN12C > 91.2 µM | RXF 393 > 31.2 µM | UACC-62 65.8 µM | KM12 11.6 µM | K562 9.12 µM | OVCAR-3 > 100 µM | SK-MEL-5 9.38 µM | DU-145 47.3 µM

Clc1ccc(/C=c2\nc(-c3ccccc3)n3c2nc2ccccc23)cc1
inactive: NCI-H23 > 100 µM | NCI-H460 > 100 µM | LOX IMVI > 100 µM | BT-549 63.2 µM | HCT-116 > 100 µM | NCI-H226 > 100 µM | 786-0 56.8 µM | RPMI-8226 > 100 µM | MCF7 > 100 µM | ACHN 21.9 µM | CCRF-CEM > 100 µM | OVCAR-8 32.7 µM | SN12C > 100 µM | RXF 393 28.7 µM | UACC-62 > 100 µM | KM12 > 100 µM | K562 > 100 µM | OVCAR-3 51.9 µM | SK-MEL-5 > 100 µM | DU-145 > 100 µM

COC(=O)c1ccc(C)cc1C1CN=NC12Cc1cc(C)ccc1C2=O (stereo not given)
inactive: NCI-H23 18.1 µM | NCI-H460 27.5 µM | LOX IMVI 10.4 µM | BT-549 15.3 µM | HCT-116 7.64 µM | NCI-H226 21.2 µM | 786-0 21.3 µM | RPMI-8226 16.4 µM | MCF7 3.61 µM | ACHN 28.1 µM | CCRF-CEM 15.9 µM | OVCAR-8 27.2 µM | SN12C 23.9 µM | RXF 393 13.8 µM | UACC-62 8 µM | KM12 6.14 µM | K562 4.84 µM | OVCAR-3 9.14 µM | SK-MEL-5 8.28 µM | DU-145 34 µM

COc1ccccc1NC(=O)C(=O)Cc1cnc2ccccc2n1
inactive: NCI-H23 > 100 µM | NCI-H460 > 100 µM | LOX IMVI > 100 µM | BT-549 > 100 µM | HCT-116 > 100 µM | NCI-H226 > 100 µM | 786-0 > 100 µM | RPMI-8226 > 100 µM | MCF7 > 100 µM | ACHN > 100 µM | CCRF-CEM > 100 µM | OVCAR-8 > 100 µM | SN12C > 100 µM | RXF 393 > 100 µM | UACC-62 > 100 µM | KM12 > 100 µM | K562 > 100 µM | OVCAR-3 > 100 µM | SK-MEL-5 > 100 µM | DU-145 > 100 µM
